Experimental findings from patent US8211945B2, “Carba-sugar amine derivative and glycolipid metabolic disorder treating agent containing the same as active ingredient” (Seikagaku Corporation, priority 2001, dated 2012) are described below.

Holding throughout (type): cell-based
For assay [1], the target named is T1, human mutant β-galactosidase Y83H (Homo sapiens, UniProt P16278, Y83H).
T1 construct: expressed in transfected cells; host or cells: SV40-immortalized skin fibroblasts of a β-galactosidase-deficient knockout mouse
T1 sequence (P16278 29-677 Y83H): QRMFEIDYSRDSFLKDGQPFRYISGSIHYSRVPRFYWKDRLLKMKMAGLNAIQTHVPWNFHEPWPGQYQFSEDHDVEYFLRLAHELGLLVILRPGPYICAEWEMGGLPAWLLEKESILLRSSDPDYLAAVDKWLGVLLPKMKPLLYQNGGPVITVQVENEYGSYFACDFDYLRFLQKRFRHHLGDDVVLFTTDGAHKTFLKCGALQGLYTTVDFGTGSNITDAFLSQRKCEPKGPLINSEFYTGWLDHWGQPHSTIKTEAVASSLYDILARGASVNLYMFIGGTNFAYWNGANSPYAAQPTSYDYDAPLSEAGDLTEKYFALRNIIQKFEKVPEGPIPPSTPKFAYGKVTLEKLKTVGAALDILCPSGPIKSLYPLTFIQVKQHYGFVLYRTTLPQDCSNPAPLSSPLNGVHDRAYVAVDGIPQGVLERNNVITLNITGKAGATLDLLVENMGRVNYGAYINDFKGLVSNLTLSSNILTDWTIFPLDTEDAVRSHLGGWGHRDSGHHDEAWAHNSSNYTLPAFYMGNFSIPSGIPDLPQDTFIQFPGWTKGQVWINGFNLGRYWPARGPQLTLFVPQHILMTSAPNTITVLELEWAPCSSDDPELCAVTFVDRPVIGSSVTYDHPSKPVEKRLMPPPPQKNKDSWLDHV
The assay is described as follows: Mutant β-galactosidase activity in model cells, 4 days culture. The source says:
(§1) Cultured skin fibroblasts of a β-galactosidase-deficient knockout mouse was immortalized by introducing an SV40 viral gene, and enzyme genes integrated into pSV2neo and an expression vector were also introduced simultaneously, thereby establishing a model cell (Brain Dev., 23(5), 284-287, 2001). The genes used are human normal (GP8) and mutant β-galactosidase gene Y316C, G123R (infantile GM1-gangliosidosis), R201C (juvenile GM1-gangliosidosis), 151T, T82M, R201H, R263S, R457Q (adult GM1-gangliosidosis), W273L, Y83H, R482H and R482C (Morquio-B disease) (Hum. Genet., 93(2), 109-114, 1994).
(§2) As a control substance, 0.5 mM N-(n-butyl)-deoxygalactonojirimycin (NB-DGJ: The Journal of Biological Chemistry, 269, 27108-27114 (1994)) was used, and the substance 18 of the present invention was used in an amount of 0.2 μM.
(§3) Specifically, after culturing the model cell for 4 days using a cell culture medium (10% FCS DMEM) containing the substance 18 of the present invention, the resulting cells were recovered and diluted such that the amount of protein in the suspension became a predetermined level, and then enzyme activity in the diluted suspension was measured. Using 4-methylumbelliferyl-β-D-galactopyranoside as the fluorescent substrate, the enzyme activity during 30 minutes was measured at 37° C.

Assay [2] concerns the target T2, human mutant β-galactosidase T82M (Homo sapiens, UniProt P16278, T82M).
T2 construct: expressed in transfected cells; host or cells: SV40-immortalized skin fibroblasts of a β-galactosidase-deficient knockout mouse
T2 sequence (P16278 29-677 T82M): T1 sequence (P16278 29-677 Y83H) with T54M, H55Y
Described as above.
Excerpt: as §1, §2, §3

Assay [3] deals with T3, human normal β-galactosidase (GP8) (Homo sapiens, UniProt P16278).
T3 sequence (P16278 29-677): T1 sequence (P16278 29-677 Y83H) with H55Y
Briefly: β-Galactosidase activity in model cells (knockout mouse fibroblasts with transferred gene) cultured 4 days with substance. On the set-up: made in house; host or cells: SV40-immortalized β-galactosidase knockout mouse skin fibroblasts.
Excerpt: as §1, §2, §3

Numbering of substitutions follows the chain as printed. A value given as a limit tells only on which side of the number the result lay.

In the case of `CCCCN1C[C@H](O)[C@@H](O)[C@@H](O)[C@H]1CO` [Control, N-(n-butyl)-deoxygalactonojirimycin, reference compound], the “enzyme activity, Control” value in assay [1] (transferred gene Y83H, control substance 0.5 mM NB-DGJ) is 8.89; in assay [2] (transferred gene T82M, control substance 0.5 mM NB-DGJ), 0.67; in assay [3] (transferred gene GP8, control substance 0.5 mM NB-DGJ), 74.94.

As for `CCCCCCCCN[C@@H]1C=C(CO)[C@H](O)C(O)[C@@H]1O` (stereo partly drawn) [Substance 18, N-octyl-5a-carba-α-L-arabino-hexo-5(5a)-enopyranosylamine], the “enzyme activity increased in comparison with the control” value in assay [1] (Y83H, 0.2 μM) is on record as not below 150%. In addition, the “Relative ratio (×100%)” value in assay [1] (Y83H, substance 18 vs control) was 2.27 ×100%; in assay [2] (T82M, substance 18 vs control), 0.88 ×100%; in assay [3] (GP8, substance 18 vs control), 1.05 ×100%. The enzyme activity came out at 20.16 in assay [1] (transferred gene Y83H, 0.2 μM, 4 days); 0.59 in assay [2] (transferred gene T82M, 0.2 μM, 4 days); 78.87 in assay [3] (transferred gene GP8, 0.2 μM, 4 days).
